# Experimental data published in the NIST ThermoML archive (doi:10.1021/je300234g).
# ± gives the expanded uncertainty stated by the source.
# How the values were obtained:
# [1] = relative permittivity at zero frequency (dimensionless); conditions: 101.3 kPa, Liquid, Parallel plate capacitor
# [2] = Crystal; visual observation
structure (smiles),measurement,setting,value
"C1COCCOCCOCCOCCOCCO1 [1,4,7,10,13,16-hexaoxacyclooctadecane]",relative permittivity at zero frequency,[1]; 315.65 K,8.9 ± 0.09
same,relative permittivity at zero frequency,[1]; 318.15 K,8.86 ± 0.09
same,relative permittivity at zero frequency,[1]; 320.65 K,8.82 ± 0.09
same,relative permittivity at zero frequency,[1]; 323.15 K,8.77 ± 0.09
same,relative permittivity at zero frequency,[1]; 325.65 K,8.73 ± 0.09
same,relative permittivity at zero frequency,[1]; 328.15 K,8.69 ± 0.09
same,relative permittivity at zero frequency,[1]; 330.65 K,8.64 ± 0.09
same,relative permittivity at zero frequency,[1]; 333.15 K,8.59 ± 0.09
same,relative permittivity at zero frequency,[1]; 335.65 K,8.54 ± 0.09
same,relative permittivity at zero frequency,[1]; 338.15 K,8.49 ± 0.09
same,relative permittivity at zero frequency,[1]; 340.65 K,8.44 ± 0.08
same,relative permittivity at zero frequency,[1]; 343.15 K,8.39 ± 0.08
same,relative permittivity at zero frequency,[1]; 345.65 K,8.34 ± 0.08
same,relative permittivity at zero frequency,[1]; 348.15 K,8.29 ± 0.08
same,relative permittivity at zero frequency,[1]; 350.65 K,8.24 ± 0.08
same,relative permittivity at zero frequency,[1]; 353.15 K,8.19 ± 0.08
same,Normal melting temperature,[2],43.4 ± 3 °C
"C1COCCOCCOCCOCCO1 [1,4,7,10,13-pentaoxacyclopentadecane]",relative permittivity at zero frequency,[1]; 273.15 K,17.82 ± 0.18
same,relative permittivity at zero frequency,[1]; 275.65 K,17.56 ± 0.18
same,relative permittivity at zero frequency,[1]; 278.15 K,17.3 ± 0.17
same,relative permittivity at zero frequency,[1]; 280.65 K,17.05 ± 0.17
same,relative permittivity at zero frequency,[1]; 283.15 K,16.81 ± 0.17
same,relative permittivity at zero frequency,[1]; 285.65 K,16.57 ± 0.17
same,relative permittivity at zero frequency,[1]; 288.15 K,16.34 ± 0.16
same,relative permittivity at zero frequency,[1]; 290.65 K,16.11 ± 0.16
same,relative permittivity at zero frequency,[1]; 293.15 K,15.89 ± 0.16
same,relative permittivity at zero frequency,[1]; 295.65 K,15.68 ± 0.16
same,relative permittivity at zero frequency,[1]; 298.15 K,15.48 ± 0.15
same,relative permittivity at zero frequency,[1]; 300.65 K,15.28 ± 0.15
same,relative permittivity at zero frequency,[1]; 303.15 K,15.08 ± 0.15
same,relative permittivity at zero frequency,[1]; 305.65 K,14.88 ± 0.15
same,relative permittivity at zero frequency,[1]; 308.15 K,14.69 ± 0.15
same,relative permittivity at zero frequency,[1]; 310.65 K,14.5 ± 0.15
same,relative permittivity at zero frequency,[1]; 313.15 K,14.31 ± 0.14
same,relative permittivity at zero frequency,[1]; 315.65 K,14.14 ± 0.14
same,relative permittivity at zero frequency,[1]; 318.15 K,13.96 ± 0.14
same,relative permittivity at zero frequency,[1]; 320.65 K,13.79 ± 0.14
same,relative permittivity at zero frequency,[1]; 323.15 K,13.63 ± 0.14
same,relative permittivity at zero frequency,[1]; 325.65 K,13.46 ± 0.13
same,relative permittivity at zero frequency,[1]; 328.15 K,13.3 ± 0.13
same,relative permittivity at zero frequency,[1]; 330.65 K,13.15 ± 0.13
same,relative permittivity at zero frequency,[1]; 333.15 K,13 ± 0.13
same,Normal melting temperature,[2],-20 ± 1 °C
"C1COCCOCCOCCO1 [1,4,7,10-tetraoxacyclododecane]",relative permittivity at zero frequency,[1]; 295.65 K,10.95 ± 0.11
same,relative permittivity at zero frequency,[1]; 298.15 K,10.82 ± 0.11
same,relative permittivity at zero frequency,[1]; 300.65 K,10.7 ± 0.11
same,relative permittivity at zero frequency,[1]; 303.15 K,10.58 ± 0.11
same,relative permittivity at zero frequency,[1]; 305.65 K,10.45 ± 0.1
same,relative permittivity at zero frequency,[1]; 308.15 K,10.34 ± 0.1
same,relative permittivity at zero frequency,[1]; 310.65 K,10.22 ± 0.1
same,relative permittivity at zero frequency,[1]; 313.15 K,10.11 ± 0.1
same,relative permittivity at zero frequency,[1]; 315.65 K,10 ± 0.1
same,relative permittivity at zero frequency,[1]; 318.15 K,9.9 ± 0.1
same,relative permittivity at zero frequency,[1]; 320.65 K,9.79 ± 0.1
same,relative permittivity at zero frequency,[1]; 323.15 K,9.69 ± 0.1
same,relative permittivity at zero frequency,[1]; 325.65 K,9.59 ± 0.1
same,relative permittivity at zero frequency,[1]; 328.15 K,9.49 ± 0.1
same,relative permittivity at zero frequency,[1]; 330.65 K,9.41 ± 0.09
same,relative permittivity at zero frequency,[1]; 333.15 K,9.31 ± 0.09
same,relative permittivity at zero frequency,[1]; 335.65 K,9.22 ± 0.09
same,relative permittivity at zero frequency,[1]; 338.15 K,9.13 ± 0.09
same,relative permittivity at zero frequency,[1]; 340.65 K,9.04 ± 0.09
same,relative permittivity at zero frequency,[1]; 343.15 K,8.94 ± 0.09
same,relative permittivity at zero frequency,[1]; 345.65 K,8.86 ± 0.09
same,relative permittivity at zero frequency,[1]; 348.15 K,8.76 ± 0.09
same,relative permittivity at zero frequency,[1]; 350.65 K,8.68 ± 0.09
same,relative permittivity at zero frequency,[1]; 353.15 K,8.59 ± 0.09
same,Normal melting temperature,[2],16 ± 1 °C
